The test system of data set [1] is Herpes simplex type 2 (HSV-2) strain MS. As to the kind of experiment: CPE-inhibition assay, herpes simplex type 2 strain MS in Vero cells. It counts as cell-based, herpes simplex virus type 2. The note with it: for VR (Virus Rating): HSV-2 (MS). How it is done:
The challenge viruses were propagated and assayed in cells that were pregrown as monolayer cultures in plastic tissue culture flasks and 96-well plates, using cell culture media appropriate for the host cell cultures. The following viruses and host cell cultures were employed:
green monkey kidney (Vero)
On the day of use, a weighed sample of each compound to be evaluated was dissolved and diluted in serial 10^0.5 dilutions in the culture medium appropriate for each virus-host cell system.
Mammalian cells were pregrown as monolayers in wells of COSTAR 96-well tissue culture plates using suitable cell culture media. Stock viruses were pretitered according to the method of Reed and Muench (Amer. J. Hyg. 27:493-497, 1938) and diluted in cell culture medium to yield 32 CCID50 (cell culture infectious dose, 50%) units per 0.1 ml. Antiviral assays were designed to test seven concentrations of each compound, from cytotoxic to noncytotoxic levels, in triplicate against each of the challenge viruses in microtiter plate wells containing suitable cell monolayers. To each of the replicate cell cultures were added 0.1 ml of the test drug solution and 0.1 ml of virus suspension. Cell controls containing medium alone, virus controls containing medium and virus, and drug cytotoxicity controls containing medium and each drug concentration were run simultaneously with the test samples assayed in each experiment. […] The cell monolayers were examined microscopically for virus-induced CPE and for drug cytotoxicity.
Antiviral activity was determined by calculating the degree of inhibition of virus-induced CPE in drug-treated, virus-infected cell cultures by means of a virus rating (VR). The VR is a standard weighted measurement of antiviral activity taking into account both the degree of CPE inhibition and drug cytotoxicity, and is determined by a modification of the method of Ehrlich et al. (Ann. N.Y. Acad. Sci. 130: 5-16, 1965) as described below. CPE was graded for each individual culture in each microtiter plate well according to the following scale:
4=100% of the cells affected by virus;
3=75% of the cells affected by virus;
2=50% of the cells affected by virus;
1=25% of the cells affected by virus;
0=No CPE; normal cell monolayer.
The VR was calculated as 0.1 of the sum of the numerical differences between the recorded CPE grade of each test well and that of the corresponding virus control in the culture plate. Numerical differences between the scores of test wells containing a drug concentration which was partially cytotoxic (p) and their corresponding virus controls were halved.
The minimum inhibitory drug concentration which reduced the cytopathogenic effect (CPE) by 50% (MIC50) was calculated by using a regression analysis program for semilog curve fitting. A therapeutic index (TI) for each active compound for each susceptible virus was determined by dividing the minimum cytotoxic concentration of the test compound by the MIC50.

Data set [2] deals with Varicella-Zoster Virus (VZV) clinical isolate DM625. As to the kind of experiment: VZV plaque reduction assay. It counts as cell-based. The settings on record: Human alphaherpesvirus 3, 144 h, VZV in HFF; for EC50: minimum concentration required to inhibit plaque formation by 50%, read-out: MIC50. How it is done:
The compounds of the invention were evaluated for selective activity against varicella zoster virus (VCV) utilizing a plaque reduction assay procedure. The challenge virus was a clinical isolate designated DM625, obtained from Dr. Richard Whitley of the University of Alabama Hospitals, Birmingham, Ala. The virus had been passaged and titrated in cultures of human foreskin fibroblasts (HFF).
(§1) For the plaque reduction assay, sixth to twelfth passage human foreskin fibroblasts were seeded in wells of 12-well tissue culture plates and incubated at 37° C. in a humidified atmosphere containing 2% CO2 in air. Subconfluent HFF were rinsed with MEM and exposed to 0.5 ml/well of a suspension of VZV diluted in MEM+2% FBS for 2 hours at 37° C. Following the virus adsorption period, the inocula were removed and the infected cell layers were rinsed with MEM. Triplicate VZV-infected cell culture wells were treated with 1.0 ml of each concentration of test compound (in MEM+2% FBS). Six untreated virus-infected cell cultures and triplicate untreated uninfected cell cultures were fed with 1.0 ml of MEM+2% FBS to serve as controls. Wells containing uninfected HFF were treated with each concentration of test compound to monitor the test compound cytotoxicity. The 12-well plates were incubated at 37° C. in the CO2 incubator. At 48 hours post-virus infection (p.i.), fluids in all plate wells were replaced with fresh test compound and/or culture medium.
Six days p.i., the VZV plaques were counted (unstained, low magnification).The effect of each concentration of test compound on plaque formation was determined by comparing the mean number of plaques in the replicate test compound-treated cultures with the mean plaque counts of the untreated virus control cultures.
The MIC50 value is the minimum concentration of test Compound required to inhibit plaque formation by 50%.

The nature of data set [3]: MTT test compound cytotoxicity in human foreskin fibroblasts. It counts as cell-based. The settings on record: hff cells, read-out: MTT assay (Percent of control). How it is done: as §1
The test compound cytotoxicity control cultures were examined microscopically for gross morphologic changes, then treated with MTT and 30% SDS. The blue color of the MTT formazan was measured spectrophotometrically at 570 nm. Test compound cytotoxicity was determined by comparing the absorbance (O.D.) of each test compound control with the mean O.D. of the cell control cultures and expressed as percent of control.

Converted amounts (≈) assume the structure as drawn.

The text below walks through data of patent US5420276A, “Analogs of oxetanyl purines and pyrimidines” (Abbott Laboratories, priority 1993, dated 1995).

One may read the inhibition as the share of the control response that was lost under treatment. A lower inhibition goes with a weak effect. `Nc1ccn([C@@H]2O[C@H](CO)[C@H]2CO)c(=O)n1` [Example 22, 1-([2'R,3'R,4'S]-3',4'-Bis(hydroxymethyl)-2'-oxetanyl)cytosine]: the “VR (Virus Rating)” value in data set [1] worked out at 1.95. For the same molecule, in data set [1] (Human alphaherpesvirus 2, HSV-2 (MS), minimum drug concentration that inhibited the CPE by 50%, read-out: ID50 (the source's name)), the IC50 is 1 µg/mL (≈ 4.4 µM). In data set [2], this molecule registered an inhibition at 0.032 µM of 29%, an inhibition at 0.1 µM of 86%, an inhibition at 0.32 µM of 100% and an inhibition at 1 µM of 100%. In data set [2], at 3.2 µM the inhibition was 100% and the EC50 turned out to be 0.07 µg/mL (≈ 0.308 µM). In addition, in data set [3], the viability at 0.1 µM was found to be 88%, the viability at 0.32 µM is 81%, the viability at 1 µM came to 77% and the viability at 3.2 µM stood at 76%.

As for `O=c1ccn([C@@H]2O[C@H](CO)[C@H]2CO)c(=O)[nH]1` [Example 23, 1-([2'R,3'R,4'S]-3',4'-Bis(hydroxymethyl)-2'-oxetanyl)uracil], the “VR (Virus Rating)” value in data set [1] came out at 0.5. Further, in data set [2], the inhibition at 1 µM amounted to 22%, the inhibition at 3.2 µM amounted to 22% and the EC50 was found to be 19.4 µg/mL (≈ 85 µM). In data set [2] (10 μM), the inhibition at 10 µM was found to be 34%. In data set [2] (32 μM), this molecule registered an inhibition at 32 µM of 84%. The same molecule showed an inhibition at 100 µM in data set [2] (100 μM) of 100%. Moreover, testing at 320 µM in data set [2] (320 μM) gave an inhibition of 100%. Moreover, the viability at 3.2 µM in data set [3] turned out to be 82%. Further, the viability at 10 µM in data set [3] (10 μM) was 84%. Moreover, the viability at 32 µM in data set [3] (32 μM) is 87%. Further, in data set [3] (100 μM), the viability at 100 µM amounted to 88%. Besides, the viability at 320 µM in data set [3] (320 μM) was 82%.

In data set [2] (0.0001 μM), `O=c1[nH]c(=O)n([C@@H]2O[C@H](CO)[C@H]2CO)cc1C=CBr` [Example 44, 1-([2'R, 3'R, 4'S]-3',4'-Bis(hydroxymethyl)-2'-oxetanyl)-5-(2-bromo-1-vinyl)uracil] showed an inhibition at 0.0001 µM of 3%. Besides, at 0.00032 µM the inhibition in data set [2] (0.00032 μM) was 6%. In addition, in data set [2] (0.001 μM), 0.001 µM produced 4% inhibition. The molecule also yielded an inhibition at 0.0032 µM in data set [2] (0.0032 μM) of 16%. Besides, the inhibition at 0.01 µM in data set [2] (0.01 μM) came out at 54%. In data set [2], this molecule returned an inhibition at 0.032 µM of 97%, an inhibition at 0.1 µM of 98%, an inhibition at 0.32 µM of 99% and an inhibition at 1 µM of 99%. For the same molecule, in data set [2], the inhibition at 3.2 µM stood at 100% and the EC50 was 0.0032 µg/mL (≈ 0.00961 µM). In addition, the viability at 0.0001 µM in data set [3] (0.0001 μM) came out at 99%. Moreover, in data set [3] (0.00032 μM), the viability at 0.00032 µM is 98%. In addition, the viability at 0.001 µM in data set [3] (0.001 μM) worked out at 93%. Further, the viability at 0.0032 µM in data set [3] (0.0032 μM) stood at 100%. For the same molecule, the viability at 0.01 µM in data set [3] (0.01 μM) is 97%. The viability at 0.032 µM in data set [3] (0.032 μM) came to 94%. Moreover, in data set [3], the viability at 0.1 µM worked out at 92%, the viability at 0.32 µM was determined as 92%, the viability at 1 µM worked out at 100% and the viability at 3.2 µM was 100%.
